Results as given in patent US20250108119A1, “NOVEL STEROID PAYLOADS, STEROID LINKERS, ADCs CONTAINING AND USE THEREOF” (IMMUNEXT, INC., priority 2021, published 2025).
“Also recorded” adds a separate entry of the source.

How the values were obtained:
human PBMC = assay: Cytokine production (IL-1β, IL-6) at 24 hr by human PBMC incubated with 1 ng/mL LPS; assay type: cell-based; details: free steroid payloads, serial dilutions, 1 ng/mL LPS, 24 hr
Experimental: (§1) FIG. 51: INX-SM-3, INX-SM-4, and INX-SM-1 inhibit IL-1β (left) and IL-6 (right) production. Cytokine levels were measured at 24 hr for human PBMCS incubated with 1 ng/mL LPS and serial dilutions (1000-1 nM) of steroid payloads, with the no treatment control plotted on the log-scale x-axis at <1 nM; n=1 donor, standard deviation plotted from technical duplicates.
as §1, with “52: INX-SM-1,” for “51:”, “INX-SM-4” for “INX-SM-4,”, “INX-SM-6” for “INX-SM-1”, “IL-1β” for “IL-1β (left) and IL-6 (right)”, “levels” for “levels were”, “ng/ml” for “ng/mL”
(§2) FIG. 53: INX-SM-9, INX-SM-31 and INX-SM-35 inhibit IL-1β (top) and IL-6 (bottom) production. Cytokine levels measured at 24 hr for human PBMCS incubated with 1 ng/mL LPS and serial dilutions (1000-0.2 nM) of steroid payloads, with the no treatment control plotted on the log-scale x-axis at <0.2 nM; n=2 donors-representative donor shown. Standard deviation plotted from technical duplicates.
as §2, with “54: INX-SM-32 inhibits” for “53: INX-SM-9, INX-SM-31 and INX-SM-35 inhibit”, “(500-1” for “(1000-0.2”, “<1” for “<0.2”, “n=2. Representative” for “n=2 donors-representative”
Cytokine levels measured at 24 hr for human PBMCS incubated with 1 ng/ml LPS and serial dilutions (1000-0.5 nM) of steroid payloads, with the no treatment control plotted on the log-scale x-axis at <0.5 nM; n=1 donor, standard deviation plotted from technical duplicates.
FIG. 56: INX-SM-2 and INX-SM-7 show inhibition in IL-1β. Average Cytokine levels measured at 24 hr for human PBMCS incubated with 1 ng/ml LPS and serial dilutions (1000-0.16 nM) of steroid payloads, with the no treatment control plotted on the log-scale x-axis at <0.16 nM; n=1, standard deviation plotted from technical duplicates. […]
Average cytokine levels measured at 24 hr for human PBMC incubated with 1 ng/ml LPS and serial dilutions (100-0.032 nM) of glucocorticoid payloads; n=1, mean of technical duplicates.
Average cytokine levels measured at 24 hr for human PBMC incubated with 1 ng/mL LPS and serial dilutions (1000-0.32 nM) of glucocorticoid payloads; n=1, mean of technical duplicates.
Cytokine levels measured at 24 hr for human PBMC incubated with 1 ng/mL LPS and serial dilutions (1000-0.5 nM) of steroid payloads, with the no treatment control plotted on the log-scale x-axis at <0.5 nM; n=1 donor, mean of technical duplicates plotted.
Average cytokine levels for A. hull-1β B. huIL-6 measured at 24 hr for human PBMC incubated with 1 ng/mL LPS and serial dilutions (1000-0.16 nM) of conjugated steroid linker payloads, with the no treatment control plotted on the log-scale x-axis at <0.16 nM; n=1, standard deviation plotted from technical duplicates. Values above the ULOQ (12,500 pg/mL for IL-1b and 150,000 pg/mL for IL-6) were plotted as the extrapolated value.
Average cytokine levels for IL-1β measured at 24 hr for human PBMC incubated with 1 ng/mL LPS and serial dilutions (1000-0.16 nM) of conjugated steroid linker payloads, with the no treatment control plotted on the log-scale x-axis at <0.16 nM; n=1, mean plotted of technical duplicates
Average cytokine levels for IL-1β measured at 24 hr for human PBMC incubated with 1 ng/mL LPS and serial dilutions (1000-0.16 nM) of conjugated steroid linker payloads, with the no treatment control plotted on the log-scale x-axis at <0.16 nM; n=1, mean plotted of technical duplicates.
FIG. 66: Analogs of INX V are potent relative to INX231J. […]

[1] = tested on: LPS stimulated human PBMCs; assay: LPS stimulated human PBMC, IL-1β and IL-6 ELISA; assay type: cell-based
Experimental: The potency of novel steroids was assessed in a model of LPS stimulated human peripheral blood mononuclear cells (PBMCS). Stimulated PBMCs in this assay produce multiple pro-inflammatory cytokines1.
In all the following experiments, human PBMC, isolated from 1-2 healthy donors per study, were stimulated with LPS to induce cytokine production.
LPS was added either immediately after addition of free payload, or in the case of conjugates, four hours after addition of the conjugate.
Cells were plated in flat bottom 96 well plates at a final concentration of 150,000 cells/well, with technical duplicates for each condition.
Test agents were serially diluted in the assay media and added to a final concentration of 1,000 nM-1 nM or 0.2 nM depending on the assay or as a no treatment control.
LPS stimulation was added to a final concentration of 1 ng/ml.
Human IL-1β and IL-6 ELISA kits were used on supernatants according to vendor protocols. All graphs were prepared with GraphPad (Prism).

SMILES | inhibition of IL-1β production (human PBMC) | inhibition of IL-1β production ([1]; Experiment 8: free payload 1000-0.5 nM) | inhibition of IL-6 production (human PBMC) | potency of free payloads (conclusions) [1] | inhibition of IL-1β production ([1]; Experiment 3: free payload 1000-0.2 nM, 24 hr, n=2 donors) | inhibition of IL-1β and IL-6 production ([1]; Experiment 4: free payload 500-1 nM, 24 hr, n=2) | inhibition of IL-1β and IL-6 production ([1]; Experiment 5: free payload 1000-0.5 nM, 24 hr) | inhibition of IL-1β and IL-6 ([1]; Experiment 12: free payloads 1000-0.15 nM)
C[C@]12C=CC(=O)C=C1[C@@H](F)C[C@H]1[C@@H]3C[C@H]4O[C@@H](c5ccc(CC6CC7(CC(N)C7)C6)cc5)O[C@@]4(C(=O)CO)[C@@]3(C)C[C@H](O)[C@@]12F (stereo partly drawn) [INX-SM-25, (2S,6aS,6bR,7S,8aS,8bS,10R,11aR,12aS,12bS)-10-(4-((6-aminospiro[3.3]heptan-2-yl)methyl)phenyl)-2,6b-difluoro-7-hydroxy-8b-(2-hydroxyacetyl)-6a,8a-dimethyl-1,2,6a,6b,7,8,8a,8b,11a,12,12a,12b-dodecahydro-4H-naphtho[2′,1′:4,5]indeno[1,2-d][1,3]dioxol-4-one] | robust inhibition | robust inhibition in IL-1B production | – | – | – | – | – | –
C[C@]12C=CC(=O)C=C1CC[C@@H]1[C@@H]2[C@@H](O)C[C@@]2(C)[C@H]1C[C@H]1O[C@@H](c3ccc(CC4COC5(CNC5)C4)cc3)O[C@]12C(=O)CO (stereo partly drawn) [INX-SM-31, (6aR,6bS,7S,8aS,8bS,11aR,12aS,12bS)-10-(4-((5-oxa-2-azaspiro[3.4]octan-7-yl)methyl)phenyl)-7-hydroxy-8b-(2-hydroxyacetyl)-6a,8a-dimethyl-1,2,6a,6b,7,8,8a,8b,11a,12,12a,12b-dodecahydro-4H-naphtho[2′,1′:4,5]indeno[1,2-d][1,3]dioxol-4-one] | inhibit | – | inhibit | lowest potency among the R stereoisomers of the series | dose dependent inhibition in IL-1β production; also recorded: the least potent compound among these compounds tested | – | – | –
C[C@]12C=CC(=O)C=C1CC[C@@H]1[C@@H]2[C@@H](O)C[C@@]2(C)[C@H]1C[C@H]1O[C@@H](c3ccc(CC4CC5(CC(N)C5)C4)cc3)O[C@]12C(=O)CO (stereo partly drawn) [INX-SM-32, (6aR,6bS,7S,8aS,8bS,10R,11aR,12aS,12bS)-10-(4-((6-aminospiro[3.3]heptan-2-yl)methyl)phenyl)-7-hydroxy-8b-(2-hydroxyacetyl)-6a,8a-dimethyl-1,2,6a,6b,7,8,8a,8b,11a,12,12a,12b-dodecahydro-4H-naphtho[2′,1′:4,5]indeno[1,2-d][1,3]dioxol-4-one] | inhibits | – | inhibits | – | – | dose dependent inhibition in IL-1β and IL-6 production | – | –
C[C@]12C=CC(=O)C=C1CC[C@@H]1[C@@H]2[C@@H](O)C[C@@]2(C)[C@H]1C[C@H]1O[C@@H](c3ccc(CC4(N)COC4)cc3)O[C@]12C(=O)CO [INX-SM-33, (6aR,6bS,7S,8aS,8bS,10R,11aR,12aS,12bS)-10-(4-((3-aminooxetan-3-yl)methyl)phenyl)-7-hydroxy-8b-(2-hydroxyacetyl)-6a,8a-dimethyl-1,2,6a,6b,7,8,8a,8b,11a,12,12a,12b-dodeca hydro-4H-naphtho[2′,1′:4,5]indeno[1,2-d][1,3]dioxol-4-one] | modest inhibition | – | modest inhibition | lowest potency among the R stereoisomers of the series | – | – | modest inhibition of cytokine production | –
C[C@]12C=CC(=O)C=C1CC[C@@H]1[C@@H]2[C@@H](O)C[C@@]2(C)[C@H]1C[C@H]1CN(c3ccc(CC45CC(N)(C4)C5)cc3)C[C@]12C(=O)CO [INX-SM-34, (6aR,6bS,7S,8aS,8bS,11aR,12aS,12bS)-10-(4-((3-aminobicyclo[1.1.1]pentan-1-yl)methyl)phenyl)-7-hydroxy-8b-(2-hydroxyacetyl)-6a,8a-dimethyl-1,6a,6b,7,8,8a,8b,9,10,11,11a,12,12a,12b-tetradecahydronaphtho[2′,1′:4,5]indeno[1,2-c]pyrrol-4 (2H)-one 2,2,2-trifluoroacetate] | weakly inhibit | – | weakly inhibit | – | – | – | – | weakly inhibit IL-1β and IL-6
